# Measurements from patent publication US9249157B2, “Tricyclic heterocycle compounds” (BRISTOL-MYERS SQUIBB COMPANY, priority 2012, dated 2016).
# What was measured:
# human Notch 3 = experiment: Notch-CBF1 Transactivation Assay (Notch 3); assay type: cell-based; conditions: HeLa cells transfected with truncated Notch 3 and CBF1 luciferase reporter; 18 hours incubation
# Text: Notch-CBF1 Transactivation Assay
# The Notch-CBF1 (C-promoter binding factor I) cell based transactivation assay is based on the ability of the released Notch intracellular domain fragments (NICDs) to function as transcription factors in conjunction with CBF1 and other nuclear factors. Luciferase assays were used to measure the antagonism of Notch-CBF1 transcriptional activity. HeLa cervical cancer cells are transiently co-transfected with pCDNA3.1/Hygro plasmids containing truncated Notch 1, Notch 2, Notch 3, or Notch 4 receptors and a PGL3 luciferase reporter vector containing 4 copies of CBF1 binding site. The cells were then tested for Notch-CBF1 activity in the absence or presence of test compounds. HeLa cells, maintained in DMEM (high glucose with HEPES), 1× glutamine/penicillin/streptomycin and 10% Fetal Bovine serum, were transiently transfected in a T175 Flask (4.5×10^6 cells/flask) using the Monster Transfection Kit (Minis #MIR2906) according to manufacturers specifications. Table 1 denotes respective DNA quantity for the transfections.
# Six hours post-transfection, cells were trypsinized and plated into a 384-well black Poly-D-lysine coated tissue culture plate at a density of 5×10^3 cells/well in 95 μL assay media (DMEM (high glucose with HEPES), 1× glutamine/penicillin/streptomycin, 0.0125% BSA, 1× non-essential amino acids). Assay media (5 μL) containing test compounds in final concentrations ranging from 5 μM to 8.4×10^−5 μM (3 fold serial dilutions) were added to the cells and the cell plates were then incubated for 18 hours at 37° C. and 5% CO2. Control wells contained DMSO vehicle (total counts) or 0.5 μM of an in-house small molecule inhibitor (background counts). Duplicates were used for each sample. Luciferase activity was measured after a 20-minute incubation with 50 μl STEADY-GLO® luciferase reagents according to manufacturer's specifications (Promega, Cat. #E2550) and analyzed by Envision plate reader (PerkinElmer, Boston, Mass.).
# The antagonist effect of compounds was expressed as 100×[1−(average sample−average background)/(average total−average background)] where sample is the luciferase activity in the presence of test compound, background is equal to the luciferase activity in the presence of the small molecule inhibitor control and the total is signal induced in DMSO wells.
# TALL1 = experiment: Human Tumor Xenograft Models in Mice, TALL1; assay type: in vivo; conditions: 60 mg/kg, QDx10, oral administration; LCK = Log Cell Kill
# Text: Human Tumor Xenograft Models in Mice
# All rodents were obtained from Harlan Sprague Dawley Co. (Indianapolis, Ind.), and maintained in an ammonia-free environment in a defined and pathogen—free colony. All mice were quarantined approximately 1 week prior to their use for tumor propagation and drug efficacy testing. Mice were fed food and water ad libitum. The animal care program of Bristol-Myers Squibb Pharmaceutical Research Institute is fully accredited by the American Association for Accreditation of Laboratory Animal Care (AAALAC). All experiments were performed in accordance with Bristol-Myers Squibb (BMS) animal test methods and guidelines. […]
# The required numbers of animals needed to detect a meaningful response were pooled at the start of the experiment and each was given a subcutaneous implant of a tumor fragment (˜20 mg) with a 13-gauge trocar. Tumors were allowed to grow to the pre-determined size window (tumors outside the range were excluded) and animals were evenly distributed to various treatment and control groups. […]
# Tumor response was determined by measurement of tumors with a caliper twice a week, until the tumors reached a predetermined “target” size of 0.5 gm or 1 gm depending on the tumor type. […]
# Tumor response criteria are expressed in terms of tumor growth inhibition (% TGI). […] For this purpose, the tumor weight of a group is expressed as […] tumor weight (MTW). […]
# [1] = High Throughput Metabolic Stability Panel, human microsomes; assay type: in vitro ADME; conditions: 10 minute incubation, 0.5 μM, control compound expected range
# Description: (§1) High Throughput (HT) Metabolic Stability Panel
# (§2) The metabolic stability assay evaluated CYP-mediated metabolic stability in vitro using human, rat, mouse, dog, and/or monkey microsomes after a ten-minute incubation. Each compound was tested in duplicate.
# (§3) Test compound was received as a 3.5 mM stock solution in 100 percent DMSO. The test compound was diluted to create a 50 μM acetonitrile (ACN) solution containing 1.4% DMSO, which was then used as a 100× stock for incubation with microsomes. Each compound was tested in duplicate separately in each of three species in the Metabolic Stability-Human, Rat, and Mouse assay suite or as individual species in the Metabolic Stability-Dog or Metabolic Stability-Monkey suites. Compound, NADPH, and liver microsome solutions were combined for incubation in three steps:
# (§4) 1. 152 μl of liver microsome suspension, protein concentration of 1.1 mg/ml in 100 mM NaPi, pH 7.4, 5 mM MgCl2 buffer, was pre-warmed at 37° C.
# (§5) 3. The reaction was initiated by the addition of 17 μl of pre-warmed 10 mM NADPH solution in 100 mM NaPi, pH 7.4.
# (§6) The reaction components were mixed well, and 75 μl of the reaction mixture was immediately transferred into 150 μl quench/stop solution (zero-time point, T0). Reactions were incubated at 37° C. for 10 minutes and then an additional 75 μl aliquot was transferred into 150 μl quench solution. […]
# [2] = High Throughput Metabolic Stability Panel, rat microsomes; assay type: in vitro ADME; conditions: 10 minute incubation, 0.5 μM, control compound expected range
# Description: as §1, §2, §3, §4, §5, §6
# [3] = High Throughput Metabolic Stability Panel, mouse microsomes; assay type: in vitro ADME; conditions: 10 minute incubation, 0.5 μM, control compound expected range
# Description: as §1, §2, §3, §4, §5, §6
# [4] = High Throughput Metabolic Stability Panel, dog microsomes; assay type: in vitro ADME; conditions: 10 minute incubation, 0.5 μM, control compound expected range
# Description: as §1, §2, §3, §4, §5, §6
# [5] = High Throughput Metabolic Stability Panel, monkey microsomes; assay type: in vitro ADME; conditions: 10 minute incubation, 0.5 μM, control compound expected range
# Description: as §1, §2, §3, §4, §5, §6
SMILES,IC50 (human Notch 3) [nM],Antitumor Activity TALL1 (LCK) (TALL1),"Average Percent Remaining ± SD, Human [1] [%]","Average Percent Remaining ± SD, Rat [2] [%]","Average Percent Remaining ± SD, Mouse [3] [%]","Average Percent Remaining ± SD, Dog [4] [%]","Average Percent Remaining ± SD, Monkey [5] [%]"
"CCC[C@H](C(N)=O)[C@@H](CCC(F)(F)F)C(=O)N[C@H]1N=C(c2ccccc2)c2cccc3c2N(CCO3)C1=O [Example 7, (2R,3S)—N-((6S)-5-Oxo-8-phenyl-2,3,5,6-tetrahydro[1,4]oxazino[2,3,4-jk][1,4]benzodiazepin-6-yl)-3-propyl-2-(3,3,3-trifluoropropyl)succinamide]",14.8,0.7,,,,,
CCc1nn(CCCN2CCN(c3cccc(Cl)c3)CC2)c(=O)n1CCOc1ccccc1 [Nefazodone],,,0.4 ± 0.4,0.7 ± 0.6,0.4 ± 0.3,0.4 ± 0.4,0.6 ± 0.5
